Reference: ChEMBL document CHEMBL5303711, “ECBD screening data for assay EOS300108” (2023)
Where a name gives a salt, the structure may show the parent alone. Activity calls are given as the source filed them. The rule behind the calls is not given here.

Assay: Cytotoxicity activity against human HepG2 cells assessed by CellTiter-Glo luminescent cell viability assay.
Type: toxicity, cell-based
Set-up: assay stage confirmatory assay, source tissue liver
Details: HepG2 cells, read-out: IC50 relative

CC(C)c1ccc(S(=O)(=O)/N=C2/C=C(Sc3nc[nH]n3)C(=O)c3ccccc32)cc1
CC50: 5.8 µM (active)

COc1cccc(-c2ccc(=O)n(CC(=O)Nc3ccccn3)n2)c1
CC50: 6.8 µM (active)

CCS(=O)(=O)c1ccc(CC(=O)Nc2cc(Cl)c(-c3ccccc3OC(F)(F)F)c(Cl)c2)cc1
CC50: 12.7 µM (inactive)

Cc1ccnn1-c1ccc(C(=O)Nc2cc(N(C)C)ccn2)cc1
CC50: 12.1 µM (active)

Cc1cc(OCC(O)CN2CCCCC2)cc(C)c1Cl (stereo not drawn)
CC50: 10.5 µM (active)

C[C@@H](O[C@H]1OCCN(Cc2n[nH]c(=O)[nH]2)[C@H]1c1ccc(F)cc1)c1cc(C(F)(F)F)cc(C(F)(F)F)c1 [APREPITANT]
CC50: 14.8 µM (inactive)

CCOc1ccc(CN2CCN(C(=O)c3ccc(-c4ncon4)cc3)CC2)cc1
CC50: 5 µM (active)

Cc1cc2c(cc1S(=O)(=O)Nc1cccc(F)c1)OCC(=O)N2
CC50: 28.3 µM (inactive)

NC(=O)C(c1ccccc1)(c1ccccc1)[C@@H]1CCN(CCc2ccc3c(c2)CCO3)C1 [DARIFENACIN HYDROBROMIDE]
CC50: 11.1 µM (active)

CC(C)(C)OC(=O)Nc1ccc(-c2cc(C(=O)NCCCCCCC(=O)NO)no2)cc1
CC50: 0.7 µM (active)

CCN(CC)Cc1cc(Nc2ccnc3cc(Cl)ccc23)ccc1O [AMODIAQUINE HYDROCHLORIDE]
CC50: 3 µM (active)

COc1cccc(C(=O)Nc2ncc(Cc3cccc(C(F)(F)F)c3)s2)c1
CC50: 8 µM (active)

Cc1ccc2c(c1)C1(CCN(CCc3nc(-c4ccccc4)oc3C)CC1)OC(=O)N2
CC50: 11.2 µM (active)

Cc1csc(NC(=O)CSc2ccc(-c3ccccc3)nn2)n1
CC50: 14.7 µM (inactive)

Cn1cc(S(=O)(=O)N2CCCC2)cc1C(=O)Nc1nc(-c2ccccn2)cs1
CC50: 6.4 µM (inactive)

c1cc(NC2CCNCC2)nc(-c2cnc3ccccn23)c1
CC50: 4.5 µM (active)

CC1CCc2c(sc3ncnc(NN)c23)C1 (stereo not drawn)
CC50: 20.5 µM (inactive)

COc1cc(O)cc(O)c1C(=O)/C=C/c1ccccc1 [CARDAMOMIN]
CC50: 18.3 µM (inactive)

c1ccc([C@H](CC2CCC2)NC2CCC3(CC2)OCCO3)cc1
CC50: 4 µM (active)

F[C@H](c1nc(-c2ccc(OCc3cccnc3)cc2)no1)C1CNC1
CC50: 8.2 µM (active)

CCN(CC)CCNC(=O)C1CCN(c2nn3cc(-c4ccc(F)cc4)nc3s2)CC1
CC50: 2 µM (active)

C[C@H]1COC2=C1C(=O)C(=O)c1c2ccc2c1CCCC2(C)C [CRYPTOTANSHINONE]
CC50: 3.1 µM (active)

COc1cc2c(cc1Cc1cccc(Cl)c1F)c(=O)c(C(=O)O)cn2[C@H](CO)C(C)C
CC50: 10.2 µM (active)

CCN(Cc1cc(Nc2nc(C)cn3c(-c4cn[nH]c4)cnc23)sn1)C(C)(C)CO
CC50: 1.8 µM (active)

Oc1ccc2c(c1)CC[C@H](c1ccccc1)[C@@H]2c1ccc(OCCN2CCCC2)cc1
CC50: 2.9 µM (active)

O=C1NCCc2[nH]c(-c3ccncc3)cc21
CC50: 0.9 µM (active)

O=C(NC1CCCC1)N1CC(Oc2ccc(-c3noc(-c4cccnc4)n3)cc2)C1
CC50: 6.9 µM (active)

Cc1cccc(C(=O)Nc2nc3ccccc3[nH]2)n1
CC50: 4.4 µM (active)

C[C@@H]1CC[C@@]2(OC1)O[C@H]1C[C@H]3[C@@H]4CC=C5C[C@@H](O[C@@H]6O[C@H](CO)[C@@H](O[C@@H]7O[C@@H](C)[C@H](O)[C@@H](O)[C@H]7O)[C@H](O)[C@H]6O[C@@H]6O[C@@H](C)[C@H](O)[C@@H](O)[C@H]6O)CC[C@]5(C)[C@H]4CC[C@]3(C)[C@H]1[C@@H]2C [DIOSCIN]
CC50: 0.7 µM (active)

Oc1ccc(CCNc2ncnc3cccc(F)c23)cc1
CC50: 3.7 µM (active)

O=C1NCCN1CCN1CCC(c2cn(-c3ccc(F)cc3)c3ccc(Cl)cc23)CC1 [SERTINDOLE]
CC50: 2.7 µM (active)

COc1ccc(-c2cc3nccn3c(Nc3ncccc3C(N)=O)n2)cc1OC
CC50: 1.1 µM (active)

CC(C)c1ccccc1OCC(=O)Nc1cccnc1
CC50: 4 µM (active)

CC(C)CNC(=O)COc1ccc(-c2nc(C(C)C)no2)cc1
CC50: 8.1 µM (active)

CCc1ccc(S(=O)(=O)N2CCN(c3cc(-n4ccc(C)n4)ncn3)CC2)cc1
CC50: 6.7 µM (active)

Cc1ccc(NC(=O)c2ccc(CN3CCN(C)CC3)cc2)cc1Nc1nccc(-c2cccnc2)n1 [IMATINIB]
CC50: 7.3 µM (active)

CCS(=O)(=O)N1CCc2ccc(NC(=O)Nc3cccc(C)c3)cc21
CC50: 2.2 µM (active)

Cc1cc(NC(=O)c2cnn(-c3ccccc3)n2)cc(N2CCN(C)CC2)c1
CC50: 6.1 µM (active)

CC(C)Cn1cnc(S(=O)(=O)N2CCC[C@@H]2COc2ccc(F)cc2)c1
CC50: 8.4 µM (active)

O=c1ccc2cc(S(=O)(=O)Nc3cccc4cccnc34)ccc2o1
CC50: 3.5 µM (active)

CCOc1cc(C(=O)N[C@H]2CCN(C3CCN(C)CC3)C2)ccc1C
CC50: 15.9 µM (inactive)

CS(=O)(=O)CCNCc1ccc(-c2ccc3ncnc(Nc4ccc(OCc5cccc(F)c5)c(Cl)c4)c3c2)o1
CC50: 6.1 µM (active)

CC(=O)N1c2ccc(S(=O)(=O)N3CCC(C(=O)N4CC=C(c5ccccc5)CC4)CC3)cc2CC1C (stereo not drawn)
CC50: 6.8 µM (active)

CN1CCNc2cc(Br)ccc21
CC50: 15.3 µM (inactive)

O=C1c2sc3nccc(=O)n3c2C(=O)N1Cc1ccccc1
CC50: 10.8 µM (active)

CSc1ccc2c(c1)N(CCC1CCCCN1C)c1ccccc1S2 (stereo not drawn) [THIORIDAZINE]
CC50: 3.8 µM (active)

Nc1ncnc2c1c(-c1cnc3[nH]ccc3c1)nn2C1CCCC1
CC50: 1.6 µM (active)

CCN(CC)S(=O)(=O)c1ccc(C(=O)Cn2ncc(Cl)c(Cl)c2=O)cc1
CC50: 2 µM (active)

Cc1cc(C)cc(OCCN(C)[C@@H](C)c2nc(N)nc(N(C)C)n2)c1
CC50: 9 µM (active)

NCCCCNS(=O)(=O)c1ccc2c(Cl)cccc2c1
CC50: 13 µM (active)

CC(C)(C)c1cc(NC(=O)Nc2ccc(Oc3ccnc4[nH]c(=O)cnc34)cc2F)n(-c2ccccc2)n1
CC50: 0.4 µM (active)

CNC(=O)c1ccccc1Nc1cc(Nc2ccc(N3CCOCC3)cc2OC)ncc1C(F)(F)F [VS-4718]
CC50: 3.7 µM (active)

COc1cc(CNCCN(C)C)ccc1OCc1ccc(F)cc1
CC50: 13.1 µM (active)

CN(CC(=O)NCCN1CCC(Cc2ccccc2)CC1)S(=O)(=O)c1cccc2nsnc12
CC50: 9.1 µM (active)

CCCc1cc(C)[nH]c(=O)c1CNC(=O)c1cc(-c2ccnc(N3CCN(C)CC3)c2)cc2c1cnn2C(C)C
CC50: 6 µM (active)

O=S(=O)(c1ccccc1)N1CCN(c2ccc(Nc3ccncc3)nn2)CC1
CC50: 16.9 µM (inactive)

CC1(C)N=C(N)N=C(N)N1c1ccc(Br)cc1
CC50: 9.1 µM (inactive)

COc1cc2nc(N3CCCN(C)CC3)nc(NC3CCN(Cc4ccccc4)CC3)c2cc1OC
CC50: 0.9 µM (active)

CC(NC(=O)N1CCCN(C)C2(CCNCC2)C1)c1ccccc1Cl (stereo not drawn)
CC50: 4.3 µM (active)

CCc1ccc(NC(=O)c2nc(S(C)(=O)=O)ncc2Br)cc1
CC50: 3 µM (active)

CS(=O)(=O)c1cccc(CNc2nc(Nc3ccc4c(c3)CCC(=O)N4)ncc2C(F)(F)F)c1
CC50: 7.8 µM (active)

Fc1cccc(N2CCCC2)c1CNc1nccc(N[C@H]2CCCOC2)n1
CC50: 6.5 µM (active)

N=C(N)c1ccc(OCCCCCOc2ccc(C(=N)N)cc2)cc1 [PENTAMIDINE ISETHIONATE]
CC50: 3.4 µM (active)

Cc1ccc(NC(=O)c2ccc(CN3CC[C@H](N(C)C)C3)c(C(F)(F)F)c2)cc1Nc1nccc(-c2cncnc2)n1 [BAFETINIB]
CC50: 0.9 µM (active)

COC(=O)N[C@@H](C)CNc1nccc(-c2cn(C(C)C)nc2-c2cc(Cl)cc(NS(C)(=O)=O)c2F)n1 [ENCORAFENIB]
CC50: 0.9 µM (active)

Cc1nn2c(ncc3c(=O)n(CCN(C)C)ccc32)c1-c1ccc(Cl)cc1
CC50: 4 µM (active)

O=C(Nc1cccc(C(F)(F)F)c1)Nc1cc(S(=O)(=O)NC2CC2)ccc1-c1ccsc1
CC50: 10.1 µM (active)

COc1cc(-c2cc(-c3ccc(N4CCNCC4)cc3)cnc2C)cc(OC)c1OC
CC50: 9.1 µM (active)

O=S(=O)(c1ccc(S(=O)(=O)N2CCOc3ccccc32)cc1)N1CCCC1
CC50: 4.2 µM (active)

Cc1ccc(NC(=O)c2nc(S(C)(=O)=O)ncc2Cl)cc1
CC50: 4.1 µM (active)

COc1cc2c(cc1C(=O)Nc1ccccc1F)OCCCO2
CC50: 13.8 µM (inactive)

c1ccc(-c2cn3c(n2)CCc2ccc4cccnc4c2-3)cc1
CC50: 4 µM (active)

CCOC(=O)N1c2ccc(C(F)(F)F)cc2[C@@H](N(Cc2cc(C(F)(F)F)cc(C(F)(F)F)c2)C(=O)OC)C[C@H]1CC [TORCETRAPIB]
CC50: 6.4 µM (active)

CN1CCN(c2cc3c(cc2S(=O)(=O)N2CCCCCC2)C(=O)Nc2ccccc2O3)CC1
CC50: 11.5 µM (active)

O=C(NCC(F)(F)CO)c1ccc2noc(-c3ccccc3)c2c1
CC50: 7.2 µM (active)

N#Cc1ccc2[nH]c(O)c(-c3ccc(CN4CCOCC4)cn3)c2c1 [AZD-1080]
CC50: 7.3 µM (active)

COCC(=O)O[C@]1(CCN(C)CCCc2nc3ccccc3[nH]2)CCc2cc(F)ccc2[C@@H]1C(C)C [MIBEFRADIL DIHYDROCHLORIDE]
CC50: 3.1 µM (active)

COc1ccc(C(=O)Nc2ccc(OC3CCN(C)CC3)cc2)c(OC)n1
CC50: 13.4 µM (active)

C#Cc1cccc(Nc2ncnc3cc(OC)c(OCCCCCCC(=O)NO)cc23)c1 [CUDC-101]
CC50: 0.5 µM (active)

CCc1ccc(NC(=O)Nc2ccc3c(c2)N(S(C)(=O)=O)CC3)cc1
CC50: 2.3 µM (active)

Cn1cncc1C(=O)N1CCCN(Cc2ccccc2)c2ccccc21
CC50: 11.5 µM (inactive)

CCN1CCN(CCOc2ccc3ccccc3c2Cl)CC1
CC50: 8 µM (active)

CC(C)[C@]12O[C@H]1[C@@H]1O[C@]13[C@]1(O[C@H]1C[C@H]1C4=C(CC[C@@]13C)C(=O)OC4)[C@@H]2O [TRIPTOLIDE]
CC50: < 0.1 µM (active)

O=C(Cn1ncc(Cl)c(Cl)c1=O)N1CCC[C@H]1c1ccc2c(c1)OCCCO2
CC50: 7.1 µM (active)

CC1(C)CC(=O)c2cn(-c3ccccc3)c(=O)c(C(=O)Nc3cccnc3)c2C1
CC50: 9.2 µM (inactive)

CCc1ccc(NC(=O)N2CCN(c3cc(-n4ccc(C)n4)ncn3)CC2)cc1
CC50: 46.2 µM (inactive)

Oc1ccc2[nH]ncc2c1Br
CC50: 7.1 µM (active)

O=C(c1csc(S(=O)(=O)N2CCC(C(=O)N3CCc4ccccc43)CC2)c1)N1CCCCCC1
CC50: 10.6 µM (inactive)
